Assay results as given in ChEMBL document CHEMBL6074711, “Design, Synthesis, and Activity Evaluation of C-23-Modified 5-O-Mycaminosyltylonolide Derivatives” (ACS Med Chem Lett, 2024).
In brackets after ≈: the same amount, converted by molar mass.

Tests used:
Staphylococcus aureus [1] = assay: Antibacterial activity against drug-resistant Staphylococcus aureus clinical isolate M20 incubated for 16 to 20 hrs by broth microdilution method; assay type: functional; settings: time 16-20 hrs
Staphylococcus aureus [2] = assay: Antibacterial activity against Staphylococcus aureus ATCC25923 under 10^6 CFU/ml of bacterial inoculum culture by absorbance based assay; assay type: functional
Escherichia coli [3] = assay: Ratio of MBC to MIC for Escherichia coli ATCC25922 incubated for 20 to 24 hrs; assay type: functional; settings: time 20-24 hrs
Escherichia coli [4] = assay: Induction of resistance development in Escherichia coli ATCC25922 treated daily with continuous passaging measured after 8 passages by absorbance based assay; assay type: functional; settings: ATCC25922, 192 h, time 8 day
Escherichia coli [5] = assay: Induction of resistance development in Escherichia coli ATCC25922 treated daily with continuous passaging measured after 12 passages by absorbance based assay; assay type: functional; settings: ATCC25922, 288 h, time 12 day
Staphylococcus aureus [6] = assay: Antibacterial activity against Staphylococcus aureus ATCC25923 at pH 7; assay type: functional
Staphylococcus aureus [7] = assay: Bactericidal activity against Staphylococcus aureus ATCC25923 incubated for 20 to 24 hrs; assay type: functional; settings: time 20-24 hrs
Escherichia coli [8] = assay: Induction of resistance development in Escherichia coli ATCC25922 treated daily with continuous passaging measured after 19 passages by absorbance based assay; assay type: functional; settings: ATCC25922, 456 h, time 19 day
Escherichia coli [9] = assay: Antibacterial activity against Escherichia coli ATCC25922 incubated for 20 to 24 hrs; assay type: functional; settings: time 20-24 hrs
[10] = tested on: Stenotrophomonas maltophilia; assay: Bactericidal activity against Stenotrophomonas maltophilia ATCC17808 incubated for 20 to 24 hrs; assay type: functional; settings: time 20-24 hrs
Escherichia coli [11] = assay: Antibacterial activity against Escherichia coli ATCC25922 at pH 7; assay type: functional
Escherichia coli [12] = assay: Antibacterial activity against Escherichia coli ATCC25922 at pH 7.60; assay type: functional
Escherichia coli [13] = assay: Bactericidal activity against Escherichia coli ATCC25922 at MIC incubated for 5 hrs by time-kill assay relative to control; assay type: functional
Staphylococcus aureus [14] = assay: Antibacterial activity against Staphylococcus aureus ATCC25923 under 10^4 CFU/ml of bacterial inoculum culture by absorbance based assay; assay type: functional
Enterococcus faecalis [15] = assay: Antibacterial activity against Enterococcus faecalis ATCC29212 incubated for 20 to 24 hrs; assay type: functional; settings: time 20-24 hrs
Staphylococcus aureus [16] = assay: Bactericidal activity against Staphylococcus aureus ATCC25923 at MIC incubated for 10 to 12 hrs by time-kill assay relative to control; assay type: functional; settings: time 10-12 hrs
[17] = tested on: Stenotrophomonas maltophilia; assay: Antibacterial activity against Stenotrophomonas maltophilia ATCC17808 incubated for 16 to 20 hrs by broth microdilution method; assay type: functional; settings: time 16-20 hrs
Staphylococcus aureus [18] = assay: Antibacterial activity against Staphylococcus aureus ATCC25923 under 10^7 CFU/ml of bacterial inoculum culture by absorbance based assay; assay type: functional
[19] = tested on: Stenotrophomonas maltophilia; assay: Ratio of MBC to MIC for Stenotrophomonas maltophilia ATCC17808 incubated for 20 to 24 hrs; assay type: functional; settings: time 20-24 hrs
[20] = tested on: Stenotrophomonas maltophilia; assay: Antibacterial activity against Stenotrophomonas maltophilia ATCC17808 incubated for 20 to 24 hrs; assay type: functional; settings: time 20-24 hrs
[21] = Toxicity in Kunming mouse assessed as histopathological changes in spleen at 80 mg/kg/day, IG measured for 1 week; assay type: organism-based; settings: in vivo, po, 168 h, time 1 weeks
Staphylococcus aureus [22] = assay: Antibacterial activity against Staphylococcus aureus ATCC25923 under 10^5 CFU/ml of bacterial inoculum culture by absorbance based assay; assay type: functional
Escherichia coli [23] = assay: Antibacterial activity against Escherichia coli ATCC25922 at pH 7.80; assay type: functional
Escherichia coli [24] = assay: Antibacterial activity against Escherichia coli ATCC25922 under 10^7 CFU/ml of bacterial inoculum culture by absorbance based assay; assay type: functional
Escherichia coli [25] = assay: Antibacterial activity against Escherichia coli ATCC25922 incubated for 16 to 20 hrs by broth microdilution method; assay type: functional; settings: time 16-20 hrs
Escherichia coli [26] = assay: Antibacterial activity against Escherichia coli ATCC25922 under 10^4 CFU/ml of bacterial inoculum culture by absorbance based assay; assay type: functional
[27] = Cytotoxicity against mouse HT-22 cells incubated for 72 hrs by MTT assay; assay type: toxicity, cell-based
Staphylococcus aureus [28] = assay: Induction of resistance development in Staphylococcus aureus ATCC25923 treated daily with continuous passaging measured after 7 passages by absorbance based assay; assay type: functional; settings: ATCC25923, 168 h, time 7 day
Staphylococcus aureus [29] = assay: Antibacterial activity against Staphylococcus aureus ATCC25923 incubated for 20 to 24 hrs; assay type: functional; settings: time 20-24 hrs
Enterococcus faecalis [30] = assay: Antibacterial activity against Enterococcus faecalis ATCC29212 incubated for 16 to 20 hrs by broth microdilution method; assay type: functional; settings: time 16-20 hrs
Escherichia coli [31] = assay: Antibacterial activity against Escherichia coli ATCC25922 under 10^5 CFU/ml of bacterial inoculum culture by absorbance based assay; assay type: functional
[32] = Selectivity index, ratio of IC50 for mouse HT-22 cells to MIC for methicillin-resistant Staphylococcus aureus; assay type: toxicity, cell-based
[33] = Toxicity in Kunming mouse assessed as histopathological changes in liver at 80 mg/kg/day, IG measured for 1 week; assay type: organism-based; settings: in vivo, po, 168 h, time 1 weeks
Enterococcus faecalis [34] = assay: Ratio of MBC to MIC for Enterococcus faecalis ATCC29212 incubated for 20 to 24 hrs; assay type: functional; settings: time 20-24 hrs
Escherichia coli [35] = assay: Antibacterial activity against Escherichia coli ATCC25922 at pH 6.80; assay type: functional
Staphylococcus aureus [36] = assay: Induction of resistance development in Staphylococcus aureus ATCC25923 treated daily with continuous passaging measured after 13 passages by absorbance based assay; assay type: functional; settings: ATCC25923, 312 h, time 13 day
Enterococcus faecalis [37] = assay: Bactericidal activity against Enterococcus faecalis ATCC29212 incubated for 20 to 24 hrs; assay type: functional; settings: time 20-24 hrs
Escherichia coli [38] = assay: Induction of resistance development in Escherichia coli ATCC25922 treated daily with continuous passaging measured for 20 passages by absorbance based assay; assay type: functional, organism-based; settings: time 20.0 day
[39] = Toxicity in Kunming mouse assessed as histopathological changes in lung at 80 mg/kg/day, IG measured for 1 week; assay type: organism-based; settings: in vivo, po, 168 h, time 1 weeks
Staphylococcus aureus [40] = assay: Antibacterial activity against Staphylococcus aureus ATCC25923 at pH 6.80; assay type: functional
Staphylococcus aureus [41] = assay: Antibacterial activity against Staphylococcus aureus ATCC25923 incubated for 16 to 20 hrs by broth microdilution method; assay type: functional; settings: time 16-20 hrs
Escherichia coli [42] = assay: Bactericidal activity against Escherichia coli ATCC25922 incubated for 20 to 24 hrs; assay type: functional; settings: time 20-24 hrs
Staphylococcus aureus [43] = assay: Ratio of MBC to MIC for Staphylococcus aureus ATCC25923 incubated for 20 to 24 hrs; assay type: functional; settings: time 20-24 hrs
Staphylococcus aureus [44] = assay: Induction of resistance development in Staphylococcus aureus ATCC25923 at 0.5 times MIC treated daily with continuous passaging measured for 20 passages by absorbance based assay; assay type: functional, organism-based; settings: time 20.0 day
Escherichia coli [45] = assay: Antibacterial activity against drug-resistant Escherichia coli clinical isolate 1322 incubated for 16 to 20 hrs by broth microdilution method; assay type: functional; settings: time 16-20 hrs
[46] = Toxicity in Kunming mouse assessed as histopathological changes in heart at 80 mg/kg/day, IG measured for 1 week; assay type: organism-based; settings: in vivo, po, 168 h, time 1 weeks
Escherichia coli [47] = assay: Antibacterial activity against Escherichia coli ATCC25922 under 10^6 CFU/ml of bacterial inoculum culture by absorbance based assay; assay type: functional
Staphylococcus aureus [48] = assay: Antibacterial activity against Staphylococcus aureus ATCC25923 at pH 7.80; assay type: functional
Staphylococcus aureus [49] = assay: Antibacterial activity against Staphylococcus aureus ATCC25923 at pH 7.40; assay type: functional
Escherichia coli [50] = assay: Antibacterial activity against Escherichia coli ATCC25922 at pH 7.20; assay type: functional
Escherichia coli [51] = assay: Antibacterial activity against drug-resistant Escherichia coli clinical isolate 1333 incubated for 16 to 20 hrs by broth microdilution method; assay type: functional; settings: time 16-20 hrs
Staphylococcus aureus [52] = assay: Antibacterial activity against Staphylococcus aureus ATCC25923 at pH 7.60; assay type: functional
[53] = Toxicity in Kunming mouse assessed as histopathological changes in kidney at 80 mg/kg/day, IG measured for 1 week; assay type: organism-based; settings: in vivo, po, 168 h, time 1 weeks
Staphylococcus aureus [54] = assay: Antibacterial activity against Staphylococcus aureus ATCC25923 at pH 7.20; assay type: functional
Escherichia coli [55] = assay: Antibacterial activity against Escherichia coli ATCC25922 at pH 7.40; assay type: functional

## CC[C@H]1OC(=O)C[C@@H](O)[C@H](C)[C@@H](O[C@@H]2O[C@H](C)[C@@H](O)[C@H](N(C)C)[C@H]2O)[C@@H](CCN(C)Cc2cn(-c3cnc4ccccc4c3)nn2)C[C@@H](C)C(=O)/C=C/C(C)=C/[C@@H]1CNCc1cccc(C)c1
Staphylococcus aureus [1]
  MIC: 0.5 µg/mL (≈ 0.541 µM)
Staphylococcus aureus [2]
  MIC: 0.25 µg/mL (≈ 0.271 µM)
Escherichia coli [3]
  Ratio: 4
Escherichia coli [4]
  MIC: 1 µg/mL (≈ 1.08 µM)
Escherichia coli [5]
  MIC: 2 µg/mL (≈ 2.16 µM)
Staphylococcus aureus [6]
  MIC: 0.5 µg/mL (≈ 0.541 µM)
Staphylococcus aureus [7]
  MBC: 2 µg/mL (≈ 2.16 µM)
Escherichia coli [8]
  MIC: 4 µg/mL (≈ 4.33 µM)
Escherichia coli [9]
  MIC: 1 µg/mL (≈ 1.08 µM)
[10]
  MBC: 8 µg/mL (≈ 8.66 µM)
Escherichia coli [11]
  MIC: 0.5 µg/mL (≈ 0.541 µM)
Escherichia coli [12]
  MIC: 0.125 µg/mL (≈ 0.135 µM)
Escherichia coli [13]
  Activity: 100%
Staphylococcus aureus [14]
  MIC: 0.125 µg/mL (≈ 0.135 µM)
Enterococcus faecalis [15]
  MIC: 1 µg/mL (≈ 1.08 µM)
Staphylococcus aureus [16]
  Activity: 100%
[17]
  MIC: 2 µg/mL (≈ 2.16 µM)
Staphylococcus aureus [18]
  MIC: 0.5 µg/mL (≈ 0.541 µM)
[19]
  Ratio: 8
[20]
  MIC: 1 µg/mL (≈ 1.08 µM)
[21]
  Activity: Non-toxic
Staphylococcus aureus [22]
  MIC: 0.25 µg/mL (≈ 0.271 µM)
Escherichia coli [23]
  MIC: 0.125 µg/mL (≈ 0.135 µM)
Escherichia coli [24]
  MIC: 0.5 µg/mL (≈ 0.541 µM)
Escherichia coli [25]
  MIC: 0.5 µg/mL (≈ 0.541 µM)
Escherichia coli [26]
  MIC: 0.125 µg/mL (≈ 0.135 µM)
[27]
  IC50 at 72 h: 130 µg/mL (≈ 141 µM)
Staphylococcus aureus [28]
  MIC: 1 µg/mL (≈ 1.08 µM)
Staphylococcus aureus [29]
  MIC: 0.5 µg/mL (≈ 0.541 µM)
Enterococcus faecalis [30]
  MIC: 1 µg/mL (≈ 1.08 µM)
Escherichia coli [31]
  MIC: 0.25 µg/mL (≈ 0.271 µM)
[32]
  selectivity ratio: 130
[33]
  Activity: Non-toxic
Enterococcus faecalis [34]
  Ratio: 4
Escherichia coli [35]
  MIC: 0.5 µg/mL (≈ 0.541 µM)
Staphylococcus aureus [36]
  MIC: 2 µg/mL (≈ 2.16 µM)
Enterococcus faecalis [37]
  MBC: 8 µg/mL (≈ 8.66 µM)
Escherichia coli [38]
  Activity: Not active; Compound Induced Resistance More Slowly Than Control Drug Florfenicol
[39]
  Activity: Non-toxic
Staphylococcus aureus [40]
  MIC: 1 µg/mL (≈ 1.08 µM)
Staphylococcus aureus [41]
  MIC: 0.5 µg/mL (≈ 0.541 µM)
Escherichia coli [42]
  MBC: 4 µg/mL (≈ 4.33 µM)
Staphylococcus aureus [43]
  Ratio: 2
Staphylococcus aureus [44]
  Activity: Not active; Compound Induced Resistance Less Rapidly Than That Of Control Drug Linezolid
Escherichia coli [45]
  MIC: 0.5 µg/mL (≈ 0.541 µM)
[46]
  Activity: Non-toxic
Escherichia coli [47]
  MIC: 0.5 µg/mL (≈ 0.541 µM)
Staphylococcus aureus [48]
  MIC: 0.125 µg/mL (≈ 0.135 µM)
Staphylococcus aureus [49]
  MIC: 0.5 µg/mL (≈ 0.541 µM)
Escherichia coli [50]
  MIC: 0.5 µg/mL (≈ 0.541 µM)
Escherichia coli [51]
  MIC: 1 µg/mL (≈ 1.08 µM)
Staphylococcus aureus [52]
  MIC: 0.25 µg/mL (≈ 0.271 µM)
[53]
  Activity: Non-toxic
Staphylococcus aureus [54]
  MIC: 0.5 µg/mL (≈ 0.541 µM)
Escherichia coli [55]
  MIC: 0.25 µg/mL (≈ 0.271 µM)
